Test results reported in patent US8192962B2, “Processes for detecting toxic substances” (Daikin Industries, Ltd., priority 2001, dated 2012).

System: Stress protein genes
Test: DNA chip mRNA expression in yeast, stress protein genes (Table 6)
Type: cell-based, Saccharomyces cerevisiae S288C
Experimental: Yeast (Saccharomyces cerevisiae S288C (α SUC2mal mel gap2 CUP1)) were incubated at 25° C. on YPD medium (yeast extract 1%, polypepton 2%, glucose 2%). One of toxic chemical substances was added to the cells at logarithmic growth phase, and the cells were further incubated for two hours. Cells were cultured without any chemical substance in the same condition, and were used as control. Concentrations of the chemical substances were defined to inhibit the growth of the yeast but not lead to death.
After completion of the incubation, the culture was centrifuged to collect the cells. To the cells, sodium acetate buffer (50 mM sodium acetate, 10 mM EDTA, 1% SDS) was added, and the mixture was shaken at 65° C. for five minutes, followed by returning to room temperature, and obtaining the supernatant, of which the procedures were repeated two times. To the supernatant, ½ amount of a solution of phenol/chloroform was added, and the mixture was centrifuged to give a supernatant, which was added with an equal amount of chloroform, and the mixture was centrifuged to give a supernatant. To the supernatant, an equal amount of isopropanol containing 0.3 M sodium acetate was added, and the mixture was allowed to stand at room temperature for 30 minutes, after which the mixture was centrifuged to give a sediment of the whole RNAs. Seventy % ethanol was added to the sediment, and the mixture was again centrifuged to give a sediment, which was then dried and dissolved in water. mRNA was isolated from the whole RNAs as followings. In view of the fact that a poly A chain is attached to the 3′ terminus of mRNA, a polynucleotide having a poly T structure which was immobilized on the surface of latex beads was used to trap the mRNA, and then the mRNA was washed and eluted with spine column (Oligotex-dT30<Super>mRNA Purification Kit, Takara). Reverse transcription of the mRNA was conducted with a reverse transcriptase (Super Script II Reverse Transcriptase; catalogue No. 18064-014, GibcoBRL) using fluorescence-labeled nucleotides to give cDNAs that were introduced with Cy3-dUTP or Cy5-dUTP during the reverse transcription.
The labeled cDNAs were dissolved in TE buffer (10mM Tris-HCl/1 mM EDTA, pH8.0), and the solution was dropped on the DNA chip containing the whole genes of yeast (DNA Chip Research Inc. Japan) so that the cDNAs were hybridized on the DNA chip at 65° C. for over 12 hours. The fluoresces intensity of the DNA chip was read with a scanner, and the ratio relative to the fluorescence intensity resulting from the absence of chemical substance was estimated as the following, which is shown in Tables 1 to 9: […]

Compound: [Cl][Cd][Cl] [(2), CdCl2]
- The level of expressed mRNA in the presence of chemical substance/The level of expressed mRNA in the absence of chemical substance (yeast gene YIL033C): 1.3
- The level of expressed mRNA in the presence of chemical substance/The level of expressed mRNA in the absence of chemical substance (yeast gene YIR037W): 2.2
- The level of expressed mRNA in the presence of chemical substance/The level of expressed mRNA in the absence of chemical substance (yeast gene YIR038C): 3.5
- The level of expressed mRNA in the presence of chemical substance/The level of expressed mRNA in the absence of chemical substance (yeast gene YJL128C): 1.4
- The level of expressed mRNA in the presence of chemical substance/The level of expressed mRNA in the absence of chemical substance (yeast gene YJL158C): 0.6
- The level of expressed mRNA in the presence of chemical substance/The level of expressed mRNA in the absence of chemical substance (yeast gene YJL159W): 1.3
- The level of expressed mRNA in the presence of chemical substance/The level of expressed mRNA in the absence of chemical substance (yeast gene YJL165C): 0.8
- The level of expressed mRNA in the presence of chemical substance/The level of expressed mRNA in the absence of chemical substance (yeast gene YJR045C): 1.9
- The level of expressed mRNA in the presence of chemical substance/The level of expressed mRNA in the absence of chemical substance (yeast gene YJR090C): 1.0
- The level of expressed mRNA in the presence of chemical substance/The level of expressed mRNA in the absence of chemical substance (yeast gene YKL161C): 0.8
- The level of expressed mRNA in the presence of chemical substance/The level of expressed mRNA in the absence of chemical substance (yeast gene YKL163W): 1.4
- The level of expressed mRNA in the presence of chemical substance/The level of expressed mRNA in the absence of chemical substance (yeast gene YKL164C): 1.1
- The level of expressed mRNA in the presence of chemical substance/The level of expressed mRNA in the absence of chemical substance (yeast gene YKL210W): 1.7
- The level of expressed mRNA in the presence of chemical substance/The level of expressed mRNA in the absence of chemical substance (yeast gene YKR053C): 2.0
- The level of expressed mRNA in the presence of chemical substance/The level of expressed mRNA in the absence of chemical substance (yeast gene YLL024C): 1.6
- The level of expressed mRNA in the presence of chemical substance/The level of expressed mRNA in the absence of chemical substance (yeast gene YLL026W): 2.9
- The level of expressed mRNA in the presence of chemical substance/The level of expressed mRNA in the absence of chemical substance (yeast gene YLL039C): 1.0
- The level of expressed mRNA in the presence of chemical substance/The level of expressed mRNA in the absence of chemical substance (yeast gene YLL060C): 4.2
- The level of expressed mRNA in the presence of chemical substance/The level of expressed mRNA in the absence of chemical substance (yeast gene YLR006C): 0.7
- The level of expressed mRNA in the presence of chemical substance/The level of expressed mRNA in the absence of chemical substance (yeast gene YLR109W): 2.9
- The level of expressed mRNA in the presence of chemical substance/The level of expressed mRNA in the absence of chemical substance (yeast gene YLR259C): 1.0
- The level of expressed mRNA in the presence of chemical substance/The level of expressed mRNA in the absence of chemical substance (yeast gene YML007W): 0.8
- The level of expressed mRNA in the presence of chemical substance/The level of expressed mRNA in the absence of chemical substance (yeast gene YML070W): 1.7
- The level of expressed mRNA in the presence of chemical substance/The level of expressed mRNA in the absence of chemical substance (yeast gene YMR021C): 0.7
- The level of expressed mRNA in the presence of chemical substance/The level of expressed mRNA in the absence of chemical substance (yeast gene YMR173W): 3.6
- The level of expressed mRNA in the presence of chemical substance/The level of expressed mRNA in the absence of chemical substance (yeast gene YMR186W): 1.4
- The level of expressed mRNA in the presence of chemical substance/The level of expressed mRNA in the absence of chemical substance (yeast gene YNL064C): 1.8
- The level of expressed mRNA in the presence of chemical substance/The level of expressed mRNA in the absence of chemical substance (yeast gene YNL160W): 3.7
- The level of expressed mRNA in the presence of chemical substance/The level of expressed mRNA in the absence of chemical substance (yeast gene YNL241C): 2.5
- The level of expressed mRNA in the presence of chemical substance/The level of expressed mRNA in the absence of chemical substance (yeast gene YNR076W): 1.3
- The level of expressed mRNA in the presence of chemical substance/The level of expressed mRNA in the absence of chemical substance (yeast gene YOL064C): 2.1
- The level of expressed mRNA in the presence of chemical substance/The level of expressed mRNA in the absence of chemical substance (yeast gene YOL161C): 1.1
- The level of expressed mRNA in the presence of chemical substance/The level of expressed mRNA in the absence of chemical substance (yeast gene YOR008C): 0.8
- The level of expressed mRNA in the presence of chemical substance/The level of expressed mRNA in the absence of chemical substance (yeast gene YOR009W): 0.8
- The level of expressed mRNA in the presence of chemical substance/The level of expressed mRNA in the absence of chemical substance (yeast gene YOR010C): 0.7
- The level of expressed mRNA in the presence of chemical substance/The level of expressed mRNA in the absence of chemical substance (yeast gene YOR027W): 2.4
- The level of expressed mRNA in the presence of chemical substance/The level of expressed mRNA in the absence of chemical substance (yeast gene YOR208W): 1.0
- The level of expressed mRNA in the presence of chemical substance/The level of expressed mRNA in the absence of chemical substance (yeast gene YPL059W): 0.9
- The level of expressed mRNA in the presence of chemical substance/The level of expressed mRNA in the absence of chemical substance (yeast gene YPL106C): 1.7
- The level of expressed mRNA in the presence of chemical substance/The level of expressed mRNA in the absence of chemical substance (yeast gene YPL140C): 1.3
- The level of expressed mRNA in the presence of chemical substance/The level of expressed mRNA in the absence of chemical substance (yeast gene YPL194W): 1.4
- The level of expressed mRNA in the presence of chemical substance/The level of expressed mRNA in the absence of chemical substance (yeast gene YPL223C): 20.0
- The level of expressed mRNA in the presence of chemical substance/The level of expressed mRNA in the absence of chemical substance (yeast gene YPL240C): 1.4
- The level of expressed mRNA in the presence of chemical substance/The level of expressed mRNA in the absence of chemical substance (yeast gene YPR005C): 0.8
- The level of expressed mRNA in the presence of chemical substance/The level of expressed mRNA in the absence of chemical substance (yeast gene YPR026W): 1.2
